{"source": "patent US6482804B1", "about": "“Compositions and methods for delivery of genetic material” (Wyeth, priority 1997, dated 2002)", "test": "Scanning and transmission electron microscopy (SEM/TEM) of surfactant:DNA complexes", "type": "physicochemical", "conditions": "aqueous formulations", "experimental": "Scanning electron microscopy (SEM) and transmission electron microscopy (TEM) were employed to visualize the resulting complexes formed by the benzylammonium-containing surfactant and polynucleic acid compositions of this invention.\nEach formulation containing 8.71% sucrose w/v and 5 mM phosphate buffer at pH6.7±0.5.\nii. […] However, upon addition of DNA, vesicular complexes are formed, when observed by SEM.\niii. […] Similar particle distribution was found at both concentrations of DNA, but in larger numbers with higher DNA concentrations. Larger particles in higher DNA concentrations appear to have derived from the fusion of several 50 nm particles. Formation of larger particles was dependent on the concentration of DNA in the formulation. These particles were visualized by shadow casting in SEM analysis using carbon, and were visible by short (10 second) exposure to the contrasting agent uranyl acetate in TEM analysis. The TEMs show membranous structures typical of liposomes described in literature.\nAs controls, SEM of DNA alone and benzalkonium chloride alone in aqueous solutions were performed. Vesicular structures are found only when aqueous solutions of DNA and benzalkonium chloride are mixed. TEMs show structures that are vesicular and some are multilamellar. Membranous structures found in these TEMs are consistent with the formation of lamellar vesicular complexes in liposomes.", "data": [{"substance": "benzalkonium chloride", "values": [{"measurement": "structures seen by SEM/TEM", "value": "does not form vesicular complexes"}]}]}
